Converted amounts (≈) assume the structure as drawn. The source made the active and inactive calls. The rule behind the calls is not given here.
Legend:
[1] = biological target: T1, Tyrosine-protein kinase JAK1 (Homo sapiens, UniProt P23458); test: Inhibition of human recombinant JAK1; details: read-out: IC50
[2] = biological target: T2, Tyrosine-protein kinase JAK2 (Homo sapiens, UniProt O60674); test: Inhibition of human recombinant JAK2
[3] = biological target: Tyrosine-protein kinase JAK3 (Homo sapiens, UniProt P52333); test: Inhibition of human recombinant JAK3
[4] = biological target: Non-receptor tyrosine-protein kinase TYK2 (Homo sapiens, UniProt P29597); test: Inhibition of human recombinant TYK2
[5] = biological target: Fibroblast growth factor receptor 3 (Homo sapiens, UniProt P22607); test: Inhibition of FGFR3 (unknown origin)
[6] = biological target: Glycogen synthase kinase-3 beta (Homo sapiens, UniProt P49841); test: Inhibition of GSK3beta (unknown origin)
[7] = biological target: Inhibitor of nuclear factor kappa-B kinase subunit beta (Homo sapiens, UniProt O14920); test: Inhibition of IKKbeta (unknown origin)
[8] = biological target: Tyrosine-protein kinase Lck (Homo sapiens, UniProt P06239); test: Inhibition of LCK (unknown origin)
[9] = biological target: MAP kinase-activated protein kinase 5 (Homo sapiens, UniProt Q8IW41); test: Inhibition of MAPKAPK5 (unknown origin)
[10] = biological target: Mitogen-activated protein kinase 14 (Homo sapiens, UniProt Q16539); test: Inhibition of p38alpha (unknown origin)
[11] = Inhibition of PKA (unknown origin); parameters: species or system Homo sapiens
[12] = biological target: Protein-tyrosine kinase 2-beta (Homo sapiens, UniProt Q14289); test: Inhibition of PYK2 (unknown origin)
[13] = biological target: Receptor-interacting serine/threonine-protein kinase 2 (Homo sapiens, UniProt O43353); test: Inhibition of RIPK2 (unknown origin)
[14] = biological target: Rho-associated protein kinase 1 (Homo sapiens, UniProt Q13464); test: Inhibition of ROCK1 (unknown origin)
[15] = biological target: Tyrosine-protein kinase SYK (Homo sapiens, UniProt P43405); test: Inhibition of SYK (unknown origin)
[16] = biological target: Mitogen-activated protein kinase kinase kinase 7 (Homo sapiens, UniProt O43318); test: Inhibition of TAK1 (unknown origin)
[17] = biological target: Serine/threonine-protein kinase TBK1 (Homo sapiens, UniProt Q9UHD2); test: Inhibition of TBK1 (unknown origin)
[18] = biological target: Cyclin-dependent kinase 2 (Homo sapiens, UniProt P24941); test: Inhibition of CDK2 (unknown origin)
[19] = species on record: Homo sapiens; test: Selectivity index, ratio of IC50 for human recombinant JAK2 to IC50 for human recombinant JAK1
[20] = species on record: Homo sapiens; test: Selectivity index, ratio of IC50 for human recombinant JAK3 to IC50 for human recombinant JAK1
[21] = species on record: Homo sapiens; test: Selectivity index, ratio of IC50 for human recombinant TYK2 to IC50 for human recombinant JAK1
[22] = Kinetic solubility of the compound at pH 7.4; details: buffer
[23] = Plasma protein binding in rat
[24] = Cmax in rat at 5 mg/kg, po; format: ADME, organism-based; parameters: dose 5 mg/kg, route oral; details: in vivo
[25] = Tmax in rat at 5 mg/kg, po; format: ADME, organism-based; parameters: dose 5 mg/kg, route oral; details: in vivo
[26] = AUC (0 to infinity) in rat at 1 mg/kg, iv; format: ADME, organism-based; parameters: time infinity, dose 1 mg/kg, route intravenous; details: plasma
[27] = AUC (0 to infinity) in rat at 5 mg/kg, po; format: ADME, organism-based; parameters: time infinity, dose 5 mg/kg, route oral; details: plasma
[28] = Half life in rat at 1 mg/kg, iv; format: ADME, organism-based; parameters: dose 1 mg/kg, route intravenous; details: in vivo
[29] = Half life in rat at 5 mg/kg, po; format: ADME, organism-based; parameters: dose 5 mg/kg, route oral; details: in vivo
[30] = Cmax in dog at 1 mg/kg, iv; format: ADME, organism-based, Canis lupus familiaris; parameters: dose 1 mg/kg, route intravenous; details: in vivo
[31] = Cmax in dog at 5 mg/kg, po; format: ADME, organism-based, Canis lupus familiaris; parameters: dose 5 mg/kg, route oral; details: in vivo
[32] = Tmax in dog at 5 mg/kg, po; format: ADME, organism-based, Canis lupus familiaris; parameters: dose 5 mg/kg, route oral; details: in vivo
[33] = AUC (0 to infinity) in dog at 1 mg/kg, iv; format: ADME, organism-based, Canis lupus familiaris; parameters: time infinity, dose 1 mg/kg, route intravenous; details: plasma
[34] = AUC (0 to infinity) in dog at 5 mg/kg, po; format: ADME, organism-based, Canis lupus familiaris; parameters: dose 5 mg/kg, route oral, time infinity; details: plasma
[35] = Clearance in dog at 1 mg/kg, iv; format: ADME, organism-based, Canis lupus familiaris; parameters: dose 1 mg/kg, route intravenous; details: in vivo
[36] = Volume of distribution at steady state in dog at 1 mg/kg, iv; format: ADME, organism-based, Canis lupus familiaris; parameters: dose 1 mg/kg, route intravenous; details: in vivo, read-out: Vdss
[37] = Half life in dog at 1 mg/kg, iv; format: ADME, organism-based, Canis lupus familiaris; parameters: dose 1 mg/kg, route intravenous; details: in vivo
[38] = Half life in dog at 5 mg/kg, po; format: ADME, organism-based, Canis lupus familiaris; parameters: dose 5 mg/kg, route oral; details: in vivo
[39] = Oral bioavailability in dog at 1 mg/kg, iv and 5 mg/kg; format: ADME, organism-based, Canis lupus familiaris; details: in vivo
[40] = Metabolic stability in rat liver microsomes assessed as compound remaining after 60 mins; format: ADME; details: read-out: Stability
[41] = Metabolic stability in dog liver microsomes assessed as compound remaining after 60 mins; format: ADME, Canis lupus familiaris; details: read-out: Stability
[42] = Metabolic stability in human liver microsomes assessed as compound remaining after 60 mins; format: ADME; details: read-out: Stability
[43] = Half life in rat hepatocytes; format: ADME, cell-based, Hepatocyte
[44] = Half life in dog hepatocytes; format: ADME, cell-based, Canis lupus familiaris, Hepatocyte
[45] = Half life in human hepatocytes; format: ADME, cell-based, Hepatocyte
[46] = Permeability across apical to basolateral side in human Caco2 cells; format: ADME, cell-based; details: caco-2
[47] = Thermodynamic solubility in aqueous buffer solution at pH 3; format: physicochemical
[48] = Thermodynamic solubility in aqueous buffer solution at pH 7.4; format: physicochemical
[49] = Plasma protein binding in dog; format: ADME, cell-free, Canis lupus familiaris; details: read-out: PPB (converted)
[50] = Plasma protein binding in human; format: ADME, cell-free; details: read-out: PPB (converted)
[51] = biological target: Cytochrome P450 1A2 (Homo sapiens, UniProt P05177); test: Inhibition of CYP1A2 (unknown origin); format: ADME
[52] = biological target: Cytochrome P450 2C9 (Homo sapiens, UniProt P11712); test: Inhibition of CYP2C9 (unknown origin); format: ADME
[53] = biological target: Cytochrome P450 2D6 (Homo sapiens, UniProt P10635); test: Inhibition of CYP2D6 (unknown origin); format: ADME
[54] = biological target: Cytochrome P450 2C19 (Homo sapiens, UniProt P33261); test: Inhibition of CYP2C19 (unknown origin); format: ADME
[55] = tested on: Rattus norvegicus; test: Antiinflammatory activity in po dosed rat collagen-induced arthritis model assessed as reduction in clinical score measured up to day 15; format: functional, organism-based
[56] = tested on: Rattus norvegicus; test: Antiinflammatory activity in rat collagen-induced arthritis model assessed as reduction in clinical score at 0.1 mg/kg, po measured up to day 15; format: functional, organism-based; parameters: dose 0.1 mg/kg
[57] = tested on: Rattus norvegicus; test: Antiinflammatory activity in rat collagen-induced arthritis model assessed as reduction in clinical score at 0.3 mg/kg, po measured up to day 15; format: functional, organism-based; parameters: dose 0.3 mg/kg
[58] = biological target: Jak1 protein (Rattus norvegicus, UniProt Q5FVF5); test: Inhibition of rat JAK1
[59] = Clearance in rat at 1 mg/kg, iv; format: ADME, organism-based; parameters: dose 1 mg/kg, route intravenous; details: in vivo
[60] = Bioavailability in rat at 1 mg/kg, iv; format: ADME, organism-based; details: in vivo
[61] = Oral bioavailability in rat at 5 mg/kg; format: ADME, organism-based; details: in vivo
[62] = biological target: T2, Tyrosine-protein kinase JAK2; test: Inhibition of JAK2 in human whole blood assessed as inhibition of GM-CSF-induced pSTAT5
[63] = biological target: T1, Tyrosine-protein kinase JAK1; test: Inhibition of JAK1 in human whole blood assessed as inhibition of IL-6-induced pSTAT1

T2 sequence (O60674 whole entry): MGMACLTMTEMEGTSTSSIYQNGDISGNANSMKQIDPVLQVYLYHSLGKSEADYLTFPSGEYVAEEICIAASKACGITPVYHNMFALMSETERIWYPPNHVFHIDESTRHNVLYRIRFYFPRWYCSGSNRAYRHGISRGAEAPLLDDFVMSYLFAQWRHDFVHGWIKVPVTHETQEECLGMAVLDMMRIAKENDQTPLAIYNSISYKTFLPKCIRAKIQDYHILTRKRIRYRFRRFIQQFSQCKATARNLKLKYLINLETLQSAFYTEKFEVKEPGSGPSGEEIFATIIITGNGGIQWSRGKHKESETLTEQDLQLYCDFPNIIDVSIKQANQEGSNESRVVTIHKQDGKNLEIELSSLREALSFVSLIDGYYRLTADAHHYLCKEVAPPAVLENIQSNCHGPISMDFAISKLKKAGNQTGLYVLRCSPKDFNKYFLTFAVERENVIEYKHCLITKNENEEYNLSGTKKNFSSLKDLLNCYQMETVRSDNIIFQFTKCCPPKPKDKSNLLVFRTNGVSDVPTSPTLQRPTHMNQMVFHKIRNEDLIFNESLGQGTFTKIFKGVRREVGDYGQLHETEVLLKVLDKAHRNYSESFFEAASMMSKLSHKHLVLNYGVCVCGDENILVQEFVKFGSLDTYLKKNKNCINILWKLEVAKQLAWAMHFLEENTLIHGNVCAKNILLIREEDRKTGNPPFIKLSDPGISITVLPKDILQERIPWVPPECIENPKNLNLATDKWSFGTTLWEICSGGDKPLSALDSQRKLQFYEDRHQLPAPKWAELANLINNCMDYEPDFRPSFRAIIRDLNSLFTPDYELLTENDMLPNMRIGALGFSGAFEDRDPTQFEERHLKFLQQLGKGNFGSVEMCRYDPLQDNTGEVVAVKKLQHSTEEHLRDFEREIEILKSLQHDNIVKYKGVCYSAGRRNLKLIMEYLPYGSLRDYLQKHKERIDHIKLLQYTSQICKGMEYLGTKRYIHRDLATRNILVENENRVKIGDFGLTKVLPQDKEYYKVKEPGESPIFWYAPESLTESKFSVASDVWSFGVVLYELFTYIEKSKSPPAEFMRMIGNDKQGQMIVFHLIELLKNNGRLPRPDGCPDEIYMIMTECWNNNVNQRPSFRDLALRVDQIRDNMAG
T1 sequence (P23458 whole entry): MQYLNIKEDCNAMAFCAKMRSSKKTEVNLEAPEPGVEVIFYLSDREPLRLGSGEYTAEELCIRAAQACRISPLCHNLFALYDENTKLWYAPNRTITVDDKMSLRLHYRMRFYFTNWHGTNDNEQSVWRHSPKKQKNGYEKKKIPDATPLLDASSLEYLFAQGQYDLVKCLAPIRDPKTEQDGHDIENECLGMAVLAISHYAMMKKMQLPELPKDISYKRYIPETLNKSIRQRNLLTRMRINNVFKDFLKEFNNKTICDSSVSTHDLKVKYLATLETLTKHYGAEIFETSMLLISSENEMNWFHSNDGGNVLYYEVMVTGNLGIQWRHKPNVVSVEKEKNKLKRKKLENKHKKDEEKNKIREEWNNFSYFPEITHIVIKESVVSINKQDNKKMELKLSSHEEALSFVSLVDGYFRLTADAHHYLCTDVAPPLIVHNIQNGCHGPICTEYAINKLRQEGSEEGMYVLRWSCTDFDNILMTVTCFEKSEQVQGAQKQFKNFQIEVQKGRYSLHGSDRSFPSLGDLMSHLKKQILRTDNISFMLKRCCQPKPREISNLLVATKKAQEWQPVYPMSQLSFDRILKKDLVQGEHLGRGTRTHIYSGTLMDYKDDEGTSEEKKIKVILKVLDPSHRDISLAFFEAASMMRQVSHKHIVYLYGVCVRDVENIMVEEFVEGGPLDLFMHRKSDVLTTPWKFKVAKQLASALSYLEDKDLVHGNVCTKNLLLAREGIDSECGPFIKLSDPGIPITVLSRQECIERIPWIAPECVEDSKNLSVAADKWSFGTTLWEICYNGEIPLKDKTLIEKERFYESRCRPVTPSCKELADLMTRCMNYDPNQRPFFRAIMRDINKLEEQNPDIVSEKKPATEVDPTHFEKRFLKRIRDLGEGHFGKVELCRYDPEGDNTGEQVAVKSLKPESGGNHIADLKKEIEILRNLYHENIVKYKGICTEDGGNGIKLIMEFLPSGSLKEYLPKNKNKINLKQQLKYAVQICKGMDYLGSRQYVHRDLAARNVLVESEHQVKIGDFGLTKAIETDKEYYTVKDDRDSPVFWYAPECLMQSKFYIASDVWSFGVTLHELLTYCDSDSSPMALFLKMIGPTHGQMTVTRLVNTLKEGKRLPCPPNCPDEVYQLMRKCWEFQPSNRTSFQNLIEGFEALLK
Jak1 protein, sequence (Q5FVF5 whole entry): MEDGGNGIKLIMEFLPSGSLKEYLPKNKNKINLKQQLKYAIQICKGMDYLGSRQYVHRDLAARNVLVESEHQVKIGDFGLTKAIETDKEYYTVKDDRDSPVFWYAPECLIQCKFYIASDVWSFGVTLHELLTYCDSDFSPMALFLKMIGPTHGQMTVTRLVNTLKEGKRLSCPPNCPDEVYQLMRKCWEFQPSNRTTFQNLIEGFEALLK
Inhibitor of nuclear factor kappa-B kinase subunit beta, sequence (O14920 whole entry): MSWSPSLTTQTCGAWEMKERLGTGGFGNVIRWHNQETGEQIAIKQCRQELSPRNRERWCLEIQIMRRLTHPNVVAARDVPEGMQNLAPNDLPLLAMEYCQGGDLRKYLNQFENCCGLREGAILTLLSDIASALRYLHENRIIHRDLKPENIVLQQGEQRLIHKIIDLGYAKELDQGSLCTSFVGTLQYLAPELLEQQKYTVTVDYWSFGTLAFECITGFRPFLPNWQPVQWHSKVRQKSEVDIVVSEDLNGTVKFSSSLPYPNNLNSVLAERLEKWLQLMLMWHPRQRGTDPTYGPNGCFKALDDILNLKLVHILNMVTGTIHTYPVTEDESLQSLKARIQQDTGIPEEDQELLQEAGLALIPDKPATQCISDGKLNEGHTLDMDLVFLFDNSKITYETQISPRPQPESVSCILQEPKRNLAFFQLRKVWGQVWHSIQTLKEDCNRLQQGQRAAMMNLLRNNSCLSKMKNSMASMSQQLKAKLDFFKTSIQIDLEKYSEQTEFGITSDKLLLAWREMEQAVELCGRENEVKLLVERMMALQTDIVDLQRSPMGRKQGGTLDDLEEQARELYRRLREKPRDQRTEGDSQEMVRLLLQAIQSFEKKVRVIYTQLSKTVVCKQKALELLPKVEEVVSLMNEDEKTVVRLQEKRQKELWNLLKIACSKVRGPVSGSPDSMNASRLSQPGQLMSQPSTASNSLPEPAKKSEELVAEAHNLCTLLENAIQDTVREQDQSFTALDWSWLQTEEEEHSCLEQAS
Mitogen-activated protein kinase kinase kinase 7, sequence (O43318 whole entry): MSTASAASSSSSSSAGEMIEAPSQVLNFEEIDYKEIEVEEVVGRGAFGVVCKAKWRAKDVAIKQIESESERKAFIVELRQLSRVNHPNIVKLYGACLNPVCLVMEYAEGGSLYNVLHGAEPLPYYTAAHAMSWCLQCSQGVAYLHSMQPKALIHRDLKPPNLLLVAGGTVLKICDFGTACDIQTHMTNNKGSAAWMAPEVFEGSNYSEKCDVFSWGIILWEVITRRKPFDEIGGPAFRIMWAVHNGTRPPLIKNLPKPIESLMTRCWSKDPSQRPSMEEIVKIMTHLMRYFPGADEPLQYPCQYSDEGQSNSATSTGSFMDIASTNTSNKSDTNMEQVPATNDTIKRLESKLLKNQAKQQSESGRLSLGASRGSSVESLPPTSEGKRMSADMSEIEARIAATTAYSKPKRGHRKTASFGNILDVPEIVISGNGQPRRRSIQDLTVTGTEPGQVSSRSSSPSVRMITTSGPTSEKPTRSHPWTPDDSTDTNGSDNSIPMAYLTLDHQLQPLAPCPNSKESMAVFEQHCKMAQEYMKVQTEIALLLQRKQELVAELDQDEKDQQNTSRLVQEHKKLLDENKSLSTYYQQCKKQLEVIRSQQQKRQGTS
Protein-tyrosine kinase 2-beta, sequence (Q14289 whole entry): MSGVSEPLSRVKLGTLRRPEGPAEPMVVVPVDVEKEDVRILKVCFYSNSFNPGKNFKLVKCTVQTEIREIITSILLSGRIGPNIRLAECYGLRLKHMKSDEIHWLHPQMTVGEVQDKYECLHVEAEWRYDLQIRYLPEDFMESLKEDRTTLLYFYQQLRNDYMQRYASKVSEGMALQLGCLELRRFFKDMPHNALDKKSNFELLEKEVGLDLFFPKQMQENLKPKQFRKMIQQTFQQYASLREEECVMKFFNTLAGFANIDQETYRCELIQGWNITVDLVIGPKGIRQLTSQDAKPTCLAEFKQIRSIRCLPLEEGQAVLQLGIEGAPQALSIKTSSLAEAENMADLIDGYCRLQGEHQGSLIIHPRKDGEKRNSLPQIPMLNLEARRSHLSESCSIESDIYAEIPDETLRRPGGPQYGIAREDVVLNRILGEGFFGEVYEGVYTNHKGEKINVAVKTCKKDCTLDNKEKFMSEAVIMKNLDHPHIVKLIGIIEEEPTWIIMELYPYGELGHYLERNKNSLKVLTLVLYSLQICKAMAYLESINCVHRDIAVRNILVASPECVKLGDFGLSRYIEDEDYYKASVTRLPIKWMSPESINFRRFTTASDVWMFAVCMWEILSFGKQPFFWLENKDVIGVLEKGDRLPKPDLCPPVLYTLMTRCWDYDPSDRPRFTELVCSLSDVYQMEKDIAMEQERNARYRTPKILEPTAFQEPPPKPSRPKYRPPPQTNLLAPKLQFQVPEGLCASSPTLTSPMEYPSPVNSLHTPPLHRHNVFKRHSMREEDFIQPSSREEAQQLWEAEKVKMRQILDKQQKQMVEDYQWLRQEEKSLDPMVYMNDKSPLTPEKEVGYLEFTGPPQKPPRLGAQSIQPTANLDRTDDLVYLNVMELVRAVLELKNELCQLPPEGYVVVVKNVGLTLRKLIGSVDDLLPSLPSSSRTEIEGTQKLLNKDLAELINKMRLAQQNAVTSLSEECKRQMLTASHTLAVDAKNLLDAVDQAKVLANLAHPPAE

SMILES: COc1ccc(-c2cccc3nc(NC(=O)C4CC4)nn23)cc1
- IC50 [1]: 0.07 µM
- IC50 [2]: 0.138 µM
- IC50 [3]: 0.528 µM
- IC50 [4]: 0.519 µM
- IC50 [5]: > 5.74 µM
- IC50 [6]: 7.11 µM
- IC50 [7]: 24.7 µM
- IC50 [8]: 4.44 µM
- IC50 [9]: > 10 µM
- IC50 [10]: > 10 µM
- IC50 [11]: 40 µM
- IC50 [12]: 3.18 µM
- IC50 [13]: 51 µM
- IC50 [14]: > 10 µM
- IC50 [15]: 2.27 µM
- IC50 [16]: > 10 µM
- IC50 [17]: > 4 µM
- IC50 [18]: > 10 µM
- Ratio IC50 [19]: 2
- Ratio IC50 [20]: 7.5
- Ratio IC50 [21]: 7.4

SMILES: O=C(Nc1nc2cccc(-c3ccc(CN4CCS(=O)(=O)CC4)cc3)n2n1)C1CC1 [FILGOTINIB]
- solubility kinetic [22]: > 85 µg/mL
- fraction unbound [23]: 0.525
- Cmax [24]: 310 ng/mL
- Tmax [25]: 2.2 h
- AUC(0-inf) [26]: 739 ng·h/mL
- AUC(0-inf) [27]: 1680 ng·h/mL
- half-life [28]: 1.6 h
- half-life [29]: 3.9 h
- Cmax [30]: 1140 ng/mL
- Cmax [31]: 1810 ng/mL
- Tmax [32]: 1.5 h
- AUC(0-inf) [33]: 4100 ng·h/mL
- AUC(0-inf) [34]: 13900 ng·h/mL
- clearance [35]: 4.17 mL/min/kg
- Vd [36]: 1.7 L/kg
- half-life [37]: 7.5 h
- half-life [38]: 5.2 h
- bioavailability [39]: 67%
- remaining at 1 h [40]: 65%
- remaining at 1 h [41]: 45%
- remaining at 1 h [42]: 87%
- half-life [43]: 3.33 h
- half-life [44]: 3.33 h
- half-life [45]: 3.33 h
- permeability [46]: 3.5 ×10⁻⁶ cm/s
- Therm solubility [47]: 243 µg/mL
- Therm solubility [48]: 40 µg/mL
- fraction unbound [49]: 0.711
- fraction unbound [50]: 0.682
- IC50 [51]: > 70 µM
- IC50 [52]: > 70 µM
- IC50 [53]: > 70 µM
- IC50 [54]: > 70 µM
- inhibition [55]: Dose-dependent effect
- inhibition [56]: Active
- inhibition [57]: Active
- IC50 [58]: 0.029 µM

SMILES: O=C(Nc1nc2cccc(-c3ccc(CN4CCOCC4)cc3)n2n1)C1CC1
- solubility kinetic [22]: > 38 µg/mL
- fraction unbound [23]: 0.29
- Tmax [25]: 0.33 h
- AUC(0-inf) [26]: 470 ng·h/mL
- AUC(0-inf) [27]: 1440 ng·h/mL
- clearance [59]: 35.3 mL/min/kg
- half-life [28]: 0.74 h
- half-life [29]: 0.92 h
- bioavailability [60]: 62%
- bioavailability [61]: 45%
- IC50 [62]: > 30 µM
- remaining at 1 h [40]: 38%

SMILES: O=C(Nc1nc2cccc(-c3ccc(CN4CCC(F)(F)CC4)cc3)n2n1)C1CC1
- solubility kinetic [22]: 27 µg/mL (≈ 65.6 µM)
- fraction unbound [23]: 0.3
- Tmax [25]: 0.25 h
- AUC(0-inf) [27]: 690 ng·h/mL
- half-life [29]: 0.92 h
- IC50 [63]: 2.75 µM
- IC50 [62]: > 10 µM
- remaining at 1 h [40]: 26%
- IC50 [1]: 0.027 µM
- Ratio IC50 [19]: 1.1
- Ratio IC50 [20]: 8.7
- Ratio IC50 [21]: 3.2
